From patent US9255090B2, “Heterocyclyl derivatives and their use as prostaglandin D2 receptor modulators” (Actelion Pharmaceuticals Ltd., priority 2012, dated 2016) come the findings set out here.

The test system of one assay is eosinophils. Description: Eosinophil shape change assay with human plasma. The class given is cell-based. Particulars: Homo sapiens, Eosinophil, human plasma (50%), PGD2 100 nM activation, antagonistic activity. A digest of the protocol: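 Human polymorphonuclear cells stained with anti-CD49d-APC, combined with compound-preincubated human plasma (50% of final volume, 4×10^6 cells/ml) for 10 min at 37° C., then stimulated 5 min with 100 nM PGD2 and fixed. Flow cytometry scored percent eosinophils with increased forward scatter.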

Another assay deals with hCRTH2 receptor (Homo sapiens (Human), UniProt Q9Y5Y4). Description: hCRTH2 receptor membranes radioligand (3H-PGD2) displacement assay. It is filed as binding. Particulars: 3H-PGD2 radioligand displacement, HEK293-hCRTH2 membranes. A digest of the protocol: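 Compound was first mixed with buffer, then 3H-PGD2 was added at 2.5 nM, and the reaction was started with hCRTH2 membranes from HEK293 cells at 20 μg/well. After 90 min at room temperature, mixtures were filtered and washed with ice-cold buffer, and retained radioactivity was counted.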
In general terms: Displacement assays read how much labelled ligand stays bound in the presence of the test substance.

Chain of hCRTH2 receptor (Q9Y5Y4 whole entry): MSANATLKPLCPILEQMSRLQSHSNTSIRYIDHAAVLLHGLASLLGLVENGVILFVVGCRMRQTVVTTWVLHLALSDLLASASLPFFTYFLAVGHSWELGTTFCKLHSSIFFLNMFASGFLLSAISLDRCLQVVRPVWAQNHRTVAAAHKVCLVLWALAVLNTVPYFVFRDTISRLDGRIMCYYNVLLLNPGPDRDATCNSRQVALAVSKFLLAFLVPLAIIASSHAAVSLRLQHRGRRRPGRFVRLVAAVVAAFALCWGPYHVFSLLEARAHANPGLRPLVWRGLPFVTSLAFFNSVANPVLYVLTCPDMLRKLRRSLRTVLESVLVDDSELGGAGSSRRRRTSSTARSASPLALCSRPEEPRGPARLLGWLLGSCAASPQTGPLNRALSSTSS

Broadly, the IC50 is the concentration needed to halve the response being measured. Low readings indicate inhibition by little substance, high ones a need for much substance. In the case of `CCOc1ccc(CC(=O)O)cc1-c1ccc(F)c2c1CN(C(=O)OCc1cnccn1)CC2` [Example 365, 8-(5-Carboxymethyl-2-ethoxy-phenyl)-5-fluoro-3,4-dihydro-1H-isoquinoline-2-carboxylic acid pyrazin-2-ylmethyl ester], the IC50 in the assay on eosinophils was found to be 32 nM; on hCRTH2 receptor it was 3.9 nM.

With `COc1ccc(CC(=O)O)cc1-c1ccc(F)c2c1CN(C(=O)CC1(c3ccccc3)CC1)CC2` [Example 258, (3-{5-Fluoro-2-[2-(1-phenyl-cyclopropyl)-acetyl]-1,2,3,4-tetrahydro-isoquinolin-8-yl}-4-methoxy-phenyl)-acetic acid], the IC50 in the assay on eosinophils was determined as 101 nM; at hCRTH2 receptor, 2.8 nM.

Consider `CCOc1cc(CC(=O)O)ccc1-c1ccc(F)c2c1CN(C(=O)OCc1cc(F)ccc1F)CC2` [Example 407, 8-(4-Carboxymethyl-2-ethoxy-phenyl)-5-fluoro-3,4-dihydro-1H-isoquinoline-2-carboxylic acid 2,5-difluoro-benzyl ester], for which the half-maximal inhibitory concentration (IC50) was 9 nM in the assay on eosinophils and 2.1 nM at hCRTH2 receptor.

Regarding `CCOc1cc(CC(=O)O)ccc1-c1ccc(F)c2c1CN(C(=O)OCc1ccccc1)CC2` [Example 410, 8-(4-Carboxymethyl-2-ethoxy-phenyl)-5-fluoro-3,4-dihydro-1H-isoquinoline-2-carboxylic acid benzyl ester], the values for the IC50 in the assay with eosinophils and on hCRTH2 receptor were 13 nM and 26 nM, respectively.

On to `CCOc1ccc(CC(=O)O)cc1-c1ccc(F)c2c1CN(C(=O)O[C@@H](C)c1ccccc1)CC2` [Example 368, 8-(5-Carboxymethyl-2-ethoxy-phenyl)-5-fluoro-3,4-dihydro-1H-isoquinoline-2-carboxylic acid (S)-1-phenyl-ethyl ester], for which the IC50 in the assay with eosinophils was 46 nM; on hCRTH2 receptor, 5.5 nM.

Take `COc1ccc(CC(=O)O)cc1-c1ccc(F)c2c1CN(C(=O)[C@@H]1C[C@H]1c1ccccc1)CC2` (racemic) [Example 60, (±)-{3-[5-Fluoro-2-(trans-2-phenyl-cyclopropanecarbonyl)-1,2,3,4-tetrahydro-isoquinolin-8-yl]-4-methoxy-phenyl}-acetic acid]: the results for the IC50 with eosinophils and on hCRTH2 receptor were 13 nM and 2.64 nM, respectively.

As for `COc1ccc(CC(=O)O)cc1-c1ccc(F)c2c1CN(C(=O)CC(C)(C)c1cccc(F)c1)CC2` [Example 252, (3-{5-Fluoro-2-[3-(3-fluoro-phenyl)-3-methyl-butyryl]-1,2,3,4-tetrahydro-isoquinolin-8-yl}-4-methoxy-phenyl)-acetic acid], the figures for the IC50 in the assay with eosinophils and at hCRTH2 receptor were 258 nM and 13.2 nM, respectively.

On to `O=C(O)Cc1ccc(OCC(F)F)c(-c2ccc(F)c3c2CN(C(=O)OCc2ccccc2)CC3)c1` [Example 413, 8-[5-Carboxymethyl-2-(2,2-difluoro-ethoxy)-phenyl]-5-fluoro-3,4-dihydro-1H-isoquinoline-2-carboxylic acid benzyl ester], for which the values for the 50% inhibitory concentration (IC50) with eosinophils and on hCRTH2 receptor were 44 nM and 0.8 nM, respectively.

Take `COc1ccc(CC(=O)O)cc1-c1ccc(F)c2c1CN(C(=O)OCc1cccc(F)c1)CC2` [Example 138, 8-(5-Carboxymethyl-2-methoxy-phenyl)-5-fluoro-3,4-dihydro-1H-isoquinoline-2-carboxylic acid 3-fluoro-benzyl ester]: the values for the concentration for half-maximal inhibition (IC50) in the assay on eosinophils and at hCRTH2 receptor were 908 nM and 5.42 nM, respectively.

As to `COc1ccc(CC(=O)O)cc1-c1ccc(C(F)(F)F)c2c1CN(C(=O)[C@@H]1C[C@H]1c1ccccc1)CC2` (racemic) [Example 83, (±)-{4-Methoxy-3-[2-(trans-2-phenyl-cyclopropanecarbonyl)-5-trifluoromethyl-1,2,3,4-tetrahydro-isoquinolin-8-yl]-phenyl}-acetic acid], the IC50 in the assay on eosinophils is more than 1000 nM; on hCRTH2 receptor, 26.1 nM.

In the case of `CCOc1cc(CC(=O)O)ccc1-c1ccc(F)c2c1CN(C(=O)OCc1ccccc1F)CC2` [Example 406, 8-(4-Carboxymethyl-2-ethoxy-phenyl)-5-fluoro-3,4-dihydro-1H-isoquinoline-2-carboxylic acid 2-fluoro-benzyl ester], the IC50 is 10 nM with eosinophils and 7.7 nM at hCRTH2 receptor.

As to `CCOc1ccc(CC(=O)O)cc1-c1ccc(F)c2c1CN(C(=O)CC1COc3ccccc3C1)CC2` (racemic) [Example 332], the half-inhibitory concentration (IC50) stood at 15 nM in the assay with eosinophils and 11.8 nM on hCRTH2 receptor.

On to `CCOc1ccc(CC(=O)O)cc1-c1ccc(F)c2c1CN(C(=O)CCc1ccccn1)CC2` [Example 348, {4-Ethoxy-3-[5-fluoro-2-(3-pyridin-2-yl-propionyl)-1,2,3,4-tetrahydro-isoquinolin-8-yl]-phenyl}-acetic acid], for which the results for the concentration for half-maximal inhibition (IC50) with eosinophils and on hCRTH2 receptor were 16 nM and 2.7 nM, respectively.

On to `COc1cc(CC(=O)O)ccc1-c1ccc(F)c2c1CN(C(=O)CCCc1ccccc1F)CC2` [Example 185, (4-{5-Fluoro-2-[4-(2-fluoro-phenyl)-butyryl]-1,2,3,4-tetrahydro-isoquinolin-8-yl}-3-methoxy-phenyl)-acetic acid], for which the figures for the IC50 in the assay with eosinophils and at hCRTH2 receptor were 97 nM and 1.28 nM, respectively.

For the compound `COc1ccc(CC(=O)O)cc1-c1ccc(F)c2c1CN(C(=O)[C@@H]1C[C@H]1c1ccccc1)CC2` [Example 80, {3-[5-Fluoro-2-((1R,2R)-2-phenyl-cyclopropanecarbonyl)-1,2,3,4-tetrahydro-isoquinolin-8-yl]-4-methoxy-phenyl}-acetic acid], the figures for the IC50 with eosinophils and at hCRTH2 receptor were 4.7 nM and 1.89 nM, respectively.

In the case of `CCOc1cc(CC(=O)O)ccc1-c1ccc(F)c2c1CN(C(=O)CC1OCCc3ccccc31)CC2` (stereo not drawn) [Example 205, {3-Ethoxy-4-[5-fluoro-2-(2-isochroman-1-yl-acetyl)-1,2,3,4-tetrahydro-isoquinolin-8-yl]-phenyl}-acetic acid], the IC50 in the assay with eosinophils was 17 nM; on hCRTH2 receptor, 1 nM.

For the compound `CCOc1ccc(CC(=O)O)cc1-c1ccc(F)c2c1CN(C(=O)OCc1cc(F)ccc1F)CC2` [Example 401, 8-(5-Carboxymethyl-2-ethoxy-phenyl)-5-fluoro-3,4-dihydro-1H-isoquinoline-2-carboxylic acid 2,5-difluoro-benzyl ester], the IC50 came to 26 nM in the assay with eosinophils and 4.5 nM at hCRTH2 receptor.

As for `COc1ccc(CC(=O)O)cc1-c1ccc(Cl)c2c1CN(C(=O)[C@@H]1C[C@H]1c1cccc(F)c1)CC2` [Example 69, (3-{5-Chloro-2-[(1R,2R)-2-(3-fluoro-phenyl)-cyclopropanecarbonyl]-1,2,3,4-tetrahydro-isoquinolin-8-yl}-4-methoxy-phenyl)-acetic acid], the IC50 in the assay with eosinophils was found to be 78 nM; at hCRTH2 receptor, 9.58 nM.

With `COc1cc(CC(=O)O)ccc1-c1ccc(F)c2c1CN(C(=O)CC1CCc3ccccc31)CC2` (racemic) [Example 360], the IC50 with eosinophils is 30 nM; on hCRTH2 receptor, 6.1 nM.

In the case of `COc1cc(CC(=O)O)ccc1-c1ccc(F)c2c1CN(C(=O)CC(C)(C)c1ccccc1)CC2` [Example 188, {4-[5-Fluoro-2-(3-methyl-3-phenyl-butyryl)-1,2,3,4-tetrahydro-isoquinolin-8-yl]-3-methoxy-phenyl}-acetic acid], the results for the IC50 with eosinophils and on hCRTH2 receptor were 8 nM and 0.53 nM, respectively.

With `COCCOc1ccc(CC(=O)O)cc1-c1ccc(F)c2c1CN(C(=O)OCc1ccccc1)CC2` [Example 199, 8-[5-Carboxymethyl-2-(2-methoxy-ethoxy)-phenyl]-5-fluoro-3,4-dihydro-1H-isoquinoline-2-carboxylic acid benzyl ester], the results for the IC50 in the assay on eosinophils and on hCRTH2 receptor were 19 nM and 0.49 nM, respectively.
